Laboratory results: PubChem BioAssay AID296 (DTP/NCI, 2004)
Where “and” joins values, the source holds several entries; their conditions need not be identical. Equal entries are not always repeated. Records with an inconclusive call do not appear.

System: MX-1 breast xenograft, nude mice, tumor weight T/C
Assay: NCI In Vivo Anticancer Drug Screen. Data for tumor model Human Mammary Carcinoma MX-1 Xenograft (intrarenal inoculation) in NU/NU Swiss (nude) mice
Details: endpoint: mean tumor weight change, higher = larger tumour
Experimental: The antitumor activity of compounds was measured in mice bearing transplantable tumors. Survival or tumor size were measured and the results are expressed as the measurement made in the treated group (T) divided by the measurement made in the vehicle treated control group (C). The tumor model used in this assay is Human Mammary Carcinoma MX-1 Xenograft (intrarenal inoculation) in NU/NU Swiss (nude) mice

[1] = dose: 300.0 mg/kg/injection, schedule: Q04DX003 (sc), vehicle: saline with Tween-80
[2] = dose: 600.0 mg/kg/injection, schedule: Q04DX003 (sc), vehicle: saline with Tween-80
[3] = dose: 2.0 mg/kg/injection, schedule: Q01DX010 (sc), vehicle: saline
[4] = dose: 300.0 mg/kg/injection, schedule: Q04DX003 (sc), vehicle: saline

O=C1OC(C(O)CO)C(O)=C1O (configuration not stated)
T/C (dose: 200.0 mg/kg/injection, schedule: Q01DX010 (sc), vehicle: saline): 107 % of control | T/C (dose: 400.0 mg/kg/injection, schedule: Q01DX010 (sc), vehicle: saline): 110 % of control | T/C (dose: 1600.0 mg/kg/injection, schedule: Q01DX010 (sc), vehicle: saline): 121 % of control

CC(=O)Nc1ccc(O)c(O)c1
T/C [1]: 75 % of control | T/C [2]: 52 % of control | T/C (dose: 1200.0 mg/kg/injection, schedule: Q04DX003 (sc), vehicle: saline with Tween-80): 47 % of control

COc1cc(C(=O)c2cc3c(cc2C)OCO3)cc(OC)c1OC
T/C (dose: 150.0 mg/kg/injection, schedule: Q04DX003 (sc), vehicle: Klucel (hydroxypropylcellulose) (HPC)): 46 % of control | T/C (dose: 300.0 mg/kg/injection, schedule: Q04DX003 (sc), vehicle: Klucel (hydroxypropylcellulose) (HPC)): 44 % of control | T/C (dose: 600.0 mg/kg/injection, schedule: Q04DX003 (sc), vehicle: Klucel (hydroxypropylcellulose) (HPC)): 43 % of control | T/C (dose: 1200.0 mg/kg/injection, schedule: Q04DX003 (sc), vehicle: Klucel (hydroxypropylcellulose) (HPC)): 53 % of control

Cc1cc(N(CC(C)Br)CC(C)Br)ccc1N=Nc1ccccc1C(=O)O (configuration not stated)
T/C (dose: 3.13 mg/kg/injection, schedule: Q01DX010 (sc), vehicle: saline with Tween-80): 10 % of control and 12 % of control | T/C (dose: 6.25 mg/kg/injection, schedule: Q01DX010 (sc), vehicle: saline with Tween-80): -46 % of control | T/C (dose: 12.5 mg/kg/injection, schedule: Q01DX010 (sc), vehicle: saline with Tween-80): -79 % of control

CN(Cc1cnc2nc(N)nc(N)c2n1)c1ccc(C(=O)N[C@@H](CCC(=O)O)C(=O)O)cc1
T/C (dose: 0.5 mg/kg/injection, schedule: Q01DX010 (sc), vehicle: sodium bicarbonate): 86 % of control | T/C (dose: 1.0 mg/kg/injection, schedule: Q01DX010 (sc), vehicle: sodium bicarbonate): 175 % of control

Nc1nc([Se])c2ncn(C3OC(CO)C(O)C3O)c2n1 (configuration not stated)
T/C [3]: 85 % of control and 101 % of control | T/C (dose: 6.66 mg/kg/injection, schedule: Q04DX003 (ip), vehicle: saline): 76 % of control | T/C (dose: 6.66 mg/kg/injection, schedule: Q04DX003 (sc), vehicle: saline): 72 % of control | T/C (dose: 8.0 mg/kg/injection, schedule: Q01DX010 (ip), vehicle: saline): 45 % of control | T/C (dose: 13.33 mg/kg/injection, schedule: Q04DX003 (ip), vehicle: saline): 46 % of control | T/C (dose: 26.65 mg/kg/injection, schedule: Q04DX003 (ip), vehicle: saline): 74 % of control | T/C (dose: 53.3 mg/kg/injection, schedule: Q04DX003 (ip), vehicle: saline): 63 % of control | T/C (dose: 53.33 mg/kg/injection, schedule: Q04DX003 (sc), vehicle: saline): 89 % of control

Cc1cc(=O)n2c3c(c4c(cc13)c(CN(C)C)cc(=O)n4C)OC2
T/C (dose: 75.0 mg/kg/injection, schedule: Q04DX003 (sc), vehicle: saline with Tween-80): 109 % of control | T/C (dose: 150.0 mg/kg/injection, schedule: Q04DX003 (sc), vehicle: saline with Tween-80): 151 % of control | T/C [1]: 80 % of control

C=C1C(=O)C23[C@H](O)C1CC[C@H]2[C@]12COC3(O)[C@@H](O)[C@@H]1C(C)(C)CC[C@@H]2O
T/C (dose: 12.5 mg/kg/injection, schedule: Q04DX003 (sc), vehicle: Klucel (hydroxypropylcellulose) (HPC)): 52 % of control | T/C (dose: 25.0 mg/kg/injection, schedule: Q04DX003 (sc), vehicle: Klucel (hydroxypropylcellulose) (HPC)): 85 % of control

Cc1nc(N)nc(N)c1-c1ccc(Cl)c(Cl)c1
T/C (dose: 0.47 mg/kg/injection, schedule: Q04DX003 (sc), vehicle: saline): 100 % of control | T/C (dose: 0.94 mg/kg/injection, schedule: Q04DX003 (sc), vehicle: saline): 80 % of control | T/C (dose: 3.0 mg/kg/injection, schedule: Q04DX003 (sc), vehicle: saline): 84 % of control | T/C (dose: 3.75 mg/kg/injection, schedule: Q04DX003 (sc), vehicle: saline): 102 % of control | T/C (dose: 6.0 mg/kg/injection, schedule: Q04DX003 (sc), vehicle: saline): 107 % of control | T/C (dose: 12.0 mg/kg/injection, schedule: Q04DX003 (sc), vehicle: saline): 87 % of control

C=CS(C=C)=NS(=O)(=O)c1ccc(C)cc1
T/C (dose: 18.75 mg/kg/injection, schedule: Q04DX003 (sc), vehicle: Klucel (hydroxypropylcellulose) (HPC)): 64 % of control | T/C (dose: 37.5 mg/kg/injection, schedule: Q04DX003 (sc), vehicle: Klucel (hydroxypropylcellulose) (HPC)): 87 % of control

O=C(O)CC(=O)O.[NH-]CC[NH-].[Pt+2]
T/C (dose: 12.5 mg/kg/injection, schedule: Q01DX010 (sc), vehicle: dextrose): -100 % of control | T/C (dose: 100.0 mg/kg/injection, schedule: Q01DX010 (sc), vehicle: dextrose): -100 % of control

OCCCN1CCCCC1CO (configuration not stated)
T/C [4]: 85 % of control | T/C (dose: 600.0 mg/kg/injection, schedule: Q04DX003 (sc), vehicle: saline): 84 % of control | T/C (dose: 1200.0 mg/kg/injection, schedule: Q04DX003 (sc), vehicle: saline): 98 % of control

Oc1ccc(SCc2ccc(NCc3ccccc3)cc2)cc1
T/C (dose: 25.0 mg/kg/injection, schedule: Q01DX010 (sc), vehicle: saline with Tween-80): 104 % of control | T/C (dose: 50.0 mg/kg/injection, schedule: Q01DX010 (sc), vehicle: saline with Tween-80): 46 % of control | T/C (dose: 100.0 mg/kg/injection, schedule: Q01DX010 (sc), vehicle: saline with Tween-80): 92 % of control | T/C (dose: 200.0 mg/kg/injection, schedule: Q01DX010 (sc), vehicle: saline with Tween-80): 74 % of control | T/C (dose: 400.0 mg/kg/injection, schedule: Q01DX010 (sc), vehicle: saline with Tween-80): 55 % of control | T/C (dose: 800.0 mg/kg/injection, schedule: Q01DX010 (sc), vehicle: saline with Tween-80): 94 % of control

C[C@H](N)C(=O)N[C@@H]1[C@H]2C(=C(O)C[C@@H](O)[C@@H]2O)C(=O)O[C@]1(C)C(Cl)Cl
T/C (dose: 1.5 mg/kg/injection, schedule: Q04DX003 (sc), vehicle: Klucel (hydroxypropylcellulose) (HPC)): 153 % of control | T/C (dose: 6.0 mg/kg/injection, schedule: Q04DX003 (sc), vehicle: Klucel (hydroxypropylcellulose) (HPC)): 92 % of control

N=C(N)Sc1cc(O)ccc1O
T/C (dose: 37.5 mg/kg/injection, schedule: Q04DX003 (sc), vehicle: saline): 96 % of control | T/C (dose: 75.0 mg/kg/injection, schedule: Q04DX003 (sc), vehicle: saline): 106 % of control | T/C (dose: 150.0 mg/kg/injection, schedule: Q04DX003 (sc), vehicle: saline): 79 % of control | T/C [4]: 90 % of control

CCCCCCCCCCCCSC1=C(Cl)C(=O)C(OC)=C(OC)C1=O
T/C [1]: 47 % of control | T/C [2]: 77 % of control

C=C1c2cccc(O)c2C(O)=C2C(=O)[C@]3(O)C(O)=C(C(N)=O)C(=O)[C@@H](N(C)C)[C@@H]3[C@@H](O)[C@H]12
T/C (dose: 75.0 mg/kg/injection, schedule: Q04DX003 (ip), vehicle: Klucel (hydroxypropylcellulose) (HPC)): 89 % of control | T/C (dose: 150.0 mg/kg/injection, schedule: Q04DX003 (ip), vehicle: Klucel (hydroxypropylcellulose) (HPC)): 74 % of control | T/C (dose: 300.0 mg/kg/injection, schedule: Q04DX003 (ip), vehicle: Klucel (hydroxypropylcellulose) (HPC)): 58 % of control

O=NN(CCCl)C(=O)NCCCl
T/C [3]: 74 % of control | T/C (dose: 4.0 mg/kg/injection, schedule: Q01DX010 (sc), vehicle: saline): 76 % of control | T/C (dose: 4.0 mg/kg/injection, schedule: Q01DX010 (sc), vehicle: suspension in saline): 80 % of control | T/C (dose: 7.5 mg/kg/injection, schedule: Q04DX003 (sc), vehicle: suspension in saline): 80 % of control | T/C (dose: 8.0 mg/kg/injection, schedule: Q01DX010 (sc), vehicle: saline): 56 % of control | T/C (dose: 8.0 mg/kg/injection, schedule: Q01DX010 (sc), vehicle: suspension in saline): 44 % of control | T/C (dose: 15.0 mg/kg/injection, schedule: Q04DX003 (sc), vehicle: suspension in saline): 37 % of control and 52 % of control | T/C (dose: 16.0 mg/kg/injection, schedule: Q01DX010 (sc), vehicle: suspension in saline): 2 % of control | T/C (dose: 32.0 mg/kg/injection, schedule: Q01DX010 (sc), vehicle: saline): 2 % of control

NC(=O)c1ccc[n+](Cc2c(Cl)cccc2Cl)c1
T/C (dose: 50.0 mg/kg/injection, schedule: Q04DX003 (sc), vehicle: saline): 92 % of control | T/C (dose: 100.0 mg/kg/injection, schedule: Q04DX003 (sc), vehicle: saline): 100 % of control

O=c1n[n+]([O-])ccn1C1OC(CO)C(O)C1O (configuration not stated)
T/C (dose: 100.0 mg/kg/injection, schedule: Q01DX010 (sc), vehicle: suspension in saline): 56 % of control | T/C (dose: 200.0 mg/kg/injection, schedule: Q01DX010 (sc), vehicle: suspension in saline): 91 % of control | T/C (dose: 400.0 mg/kg/injection, schedule: Q01DX010 (sc), vehicle: suspension in saline): 86 % of control
